US9539218B2, “Prevention and treatment of thromboembolic disorders” (BAYER INTELLECTUAL PROPERTY GMBH, priority 2005, dated 2017)
Where two headings read alike, the source gives them in different places.

Key:
[1] = at steady state in humans, healthy male subjects, multiple dose escalation; cited from earlier work
[2] = system: patients undergoing elective primary total hip replacement; conditions: for Primary efficacy, composite endpoint (DVT, PE, death) incidence rate / Primary efficacy, composite endpoint, n of patients with event: 7-9 days
Method: This was a dose guiding study for the direct factor Xa inhibitor (I). Objective of the study was the assessment of safety, tolerability, and efficacy of (I) at different oral doses (bid and od) compared with subcutaneously administered enoxaparin 40 mg in the prevention of venous thromboembolism.
642 patients were enrolled in this study and the treatment duration was 7 to 9 days.
The main inclusion criteria for the study were: men ≧18 years of age and postmenopausal women undergoing elective primary total hip replacement.
This was a prospective, randomized, open-label, active comparator controlled, multi-center and multi-national trial designed as a proof-of-principle dose-escalating study in patients undergoing elective primary total hip replacement.
(I) was administered orally as rapid release tablets.
The criteria for evaluation were: • a) The primary efficacy endpoint was a composite endpoint of • Any deep vein thrombosis (DVT) (proximal and/or distal). • Non-fatal pulmonary embolism (PE). • Death from all causes. • The primary endpoint was evaluated 5-9 days after surgery.

[3] = (I) 2.5 mg bid oral, PP population N = 63
[4] = (I) 5 mg bid oral, PP population N = 63
[5] = (I) 10 mg bid oral, PP population N = 55
[6] = (I) 20 mg bid oral, PP population N = 59
[7] = (I) 30 mg bid oral, PP population N = 46
[8] = (I) 30 mg od oral, PP population N = 73

In the case of `O=C(NC[C@H]1CN(c2ccc(N3CCOCC3=O)cc2)C(=O)O1)c1ccc(Cl)s1` [(I), 5-Chloro-N-({(5S)-2-oxo-3-[4-(3-oxo-4-morpholinyl)-phenyl]-1,3-oxazolidin-5-yl}-methyl)-2-thiophenecarboxamide], the “plasma concentration half life” value [1] is given as 4 to 6 h, the DVT rate ([2]; 30 mg (I) once daily for 7 to 9 days, 73 patients undergoing THR surgery) is given as 12.3% and the “Prevention of venous thromboembolism (VTE)” value ([2]; 7-9-day treatment, 2.5 to 30 mg bid, adults undergoing elective hip replacement, compared with enoxaparin) is given as “prevented venous thromboembolism (VTE)”. For the same compound, the “Primary efficacy, composite endpoint (DVT, PE, death) incidence rate” value [2, 3] was 22.2%, the “Primary efficacy, composite endpoint, n of patients with event” value (“Primary efficacy, composite endpoint, n” below) [2, 3] was 14 and the “Primary efficacy, composite endpoint (DVT, PE, death) incidence rate” value [2, 4] was 23.8%. For the same compound, the “Primary efficacy, composite endpoint, n” value [2, 4] was 15, the “Primary efficacy, composite endpoint (DVT, PE, death) incidence rate” value [2, 5] was 20.0% and the “Primary efficacy, composite endpoint, n” value [2, 5] was 11. For the same compound, the “Primary efficacy, composite endpoint (DVT, PE, death) incidence rate” value [2, 6] was 10.2%, the “Primary efficacy, composite endpoint, n” value [2, 6] was 6 and the “Primary efficacy, composite endpoint (DVT, PE, death) incidence rate” value [2, 7] was 17.4%. The “Primary efficacy, composite endpoint, n” value [2, 7] was 8, the “Primary efficacy, composite endpoint (DVT, PE, death) incidence rate” value [2, 8] was 15.1% and the “Primary efficacy, composite endpoint, n” value [2, 8] was 11.
